Measured values from US20040039053A1, “Use of(-) (3-halomethylphenoxy) (4-halophenyl) acetic acid derivatives for treatment of insulin resistance, type 2 diabetes, hyperlipidemia and hyperuricemia” (priority 2000, published 2004).
Where “and” joins values, the source holds several entries; their conditions need not be identical. Equal values may be shown once.

Columns and labels:
[1] = biological target: T1, cytochrome P450 2C9 (CYP2C9) (Homo sapiens, UniProt P11712); assay: biochemical
Experimental: (§1) Tolbutamide hydroxylation activity (100 μM C-tolbutamide; 1 mM NADPH) was assayed in pooled human liver microsomes (0.6 mg protein/ml)) for 60 minutes at 37° C. both with and without test compounds.

[2] = biological target: T1, cytochrome P450 2C9 (CYP2C9); assay: Inhibition of CYP2C9 tolbutamide hydroxylation activity in pooled human liver microsomes (Example 7)
Experimental: as §1

[3] = Pharmacokinetic study in SD rats, chiral HPLC of plasma halofenic acids (Example 14); type: in vivo; conditions: single oral dose of (−) halofenate 50 mg/kg
Experimental: Male 225-250 g SD rats were purchased from Charles River. […] A catheter was placed in the left carotid artery under sodium pentobarbital (50 mg/kg i.p.) and animals were allowed to recover for 2 days before treatment. […] The gavage volume was 5 ml/kg. Blood samples were collected at 1, 2, 4, 6, 8, 12, 24, 48, 72, 96 and 120 hours post dose. The plasma samples were analyzed for each enantiomeric acid ((−) halofenic acid and (+) halofenic acid) by a chiral specific HPLC assay, since the esters are prodrugs, which are designed to convert to their respective enantiomeric acids in vivo.

diabetic ob/ob mice [4] = assay: Time course of glucose-lowering after a single oral dose in ob/ob mice (Example 8); type: in vivo; conditions: single oral dose 250 mg/kg
patients with diabetes = conditions: cited from earlier work
[5] = system: Zucker Diabetic Fatty rats; assay: Lipid lowering activity in Zucker Diabetic Fatty rats (Example 11); type: in vivo; conditions: ZDF rats, 13 days; racemate 50 mg/kg/day, enantiomers 25 mg/kg/day
Experimental: Male Zucker diabetic fatty (ZDF) rats were obtained from GMI Laboratories (Indianapolis, Ind.) at 9 weeks of age. Vehicle or enantiomers of halofenate administered by oral gavage on a daily basis starting at 74 days of age. Initial blood samples were obtained for analysis one day before treatment and at the indicated times in the treatment protocol. Blood was analyzed for plasma triglyceride and cholesterol by standard techniques.

diabetic ob/ob mice [6] = assay: Glucose and insulin lowering on daily oral administration for 5 days in ob/ob mice (Example 9); conditions: 250 mg/kg/day oral
Experimental: Animals were housed (4-5 mice/cage) under standard laboratory conditions at 22° C. and 50% relative humidity, and were maintained on a diet of Purina rodent chow and water ad libitum. Prior to treatment, blood was collected from the tail vein of each animal. Mice that had non-fasting plasma glucose levels between 300 and 520 mg/dL were used. Each treatment group consisted of 10 mice that were distributed so that the mean glucose levels were equivalent in each group as the start of the study. […] The gavage volume was 10 ml/kg. Blood samples were taken at 3, 6, 27, 30 and 120 hour after the first dose and analyzed for plasma glucose and insulin. The animals were fasted overnight (14 hours) before the 120 hours sampling. Plasma glucose concentrations were determined calorimetrically using glucose oxidase method (Sigma Chemical Co, St. Louis, Mo., USA). Plasma insulin concentrations were determined by using the Rat Insulin RIA Kit from Linco Research Inc. (St. Charles, Mo., USA). Significance difference between groups (comparing drug-treated to vehicle-treated) was evaluated using Student unpaired t-test.

Zucker fatty rats = assay: Oral glucose challenge in Zucker fatty rats (Example 10); type: in vivo; conditions: racemate 100 mg/kg, enantiomers 50 and 100 mg/kg
Experimental: Prior to treatment, rats were assigned to 6 groups based on body weight. Each treatment group consisted of 8 rats. […] The gavage volume was 10 ml/kg. All rats received an oral glucose challenge (1.9 g/kg) 5.5 hours after the treatment and 4 hours after withdrawal of the food. Blood samples were taken at 0, 15, 30, 60, 90, 120, and 180 minutes following the glucose challenge for plasma glucose measurement. […] On day 5, rats received the intravenous insulin (0.75 U/kg) 5.5 hours after the last dose and 4 hours after withdrawal of the food. Blood samples were taken at 3, 6, 9, 12, 15 and 18 minutes following the insulin injection for plasma glucose measurement.

T1 sequence (P11712 whole entry): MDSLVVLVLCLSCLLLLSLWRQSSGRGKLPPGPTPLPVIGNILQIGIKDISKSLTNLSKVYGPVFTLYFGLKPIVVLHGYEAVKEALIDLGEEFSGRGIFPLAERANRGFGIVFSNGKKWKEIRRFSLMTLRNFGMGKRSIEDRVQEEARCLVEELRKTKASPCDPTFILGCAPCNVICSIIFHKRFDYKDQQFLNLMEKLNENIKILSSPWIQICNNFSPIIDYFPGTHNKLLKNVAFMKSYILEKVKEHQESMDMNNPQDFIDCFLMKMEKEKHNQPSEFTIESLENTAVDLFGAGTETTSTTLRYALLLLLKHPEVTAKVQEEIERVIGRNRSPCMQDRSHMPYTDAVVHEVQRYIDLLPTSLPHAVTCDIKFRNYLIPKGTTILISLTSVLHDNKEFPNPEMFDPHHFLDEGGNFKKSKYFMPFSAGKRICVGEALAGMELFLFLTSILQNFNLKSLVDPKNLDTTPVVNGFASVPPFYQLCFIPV

For `O=C(O)C(Oc1cccc(C(F)(F)F)c1)c1ccc(Cl)cc1` (racemic) [racemic halofenic acid, 4-Chlorophenyl-(3-trifluoromethylphenoxy)-acetic Acid], the IC50 [1] was 450 nM and the “inhibition of cytochrome P450 2C9, in words” value [2] was “found to inhibit cytochrome P450 2C9”.

With `O=C(O)C(Oc1cccc(C(F)(F)F)c1)c1ccc(Cl)cc1` (single isomer, unassigned; (+)) [(+) halofenic acid, (+) 4-chlorophenyl-(3-trifluoromethylphenoxy)-acetic acid, reference compound] the IC50 [1] was 220 nM, the “plasma concentration at 0 hour” value ([3]; individual rats 8, 9, 11) was “BQL (BQL = Below Quantifiable Limit < 1.00 μg/mL)” and the “plasma concentration at 1 hour” value ([3]; individual rats 8, 9, 11) was 1.12 μg/mL and BQL (BQL = Below Quantifiable Limit < 1.00 μg/mL) (2×). For the same compound, the “plasma concentration at 2 hours” value ([3]; individual rats 8, 9, 11) was 1.27 μg/mL and BQL (BQL = Below Quantifiable Limit < 1.00 μg/mL) and 1.09 μg/mL, the “plasma concentration at 4 hours” value ([3]; individual rats 8, 9, 11) was 1.67 μg/mL and BQL (BQL = Below Quantifiable Limit < 1.00 μg/mL) and 1.95 μg/mL and the “plasma concentration at 6 hours” value ([3]; individual rats 8, 9, 11) was 2.96 μg/mL and BQL (BQL = Below Quantifiable Limit < 1.00 μg/mL) and 1.73 μg/mL. For the same compound, the “plasma concentration at 8 hours” value ([3]; individual rats 8, 9, 11) was 2.58 μg/mL and BQL (BQL = Below Quantifiable Limit < 1.00 μg/mL) and 2.06 μg/mL, the “plasma concentration at 12 hours” value ([3]; individual rats 8, 9, 11) was 2850 ng/mL and 2230 ng/mL and 2080 ng/mL and the “plasma concentration at 24 hours” value ([3]; individual rats 8, 9, 11) was 2220 ng/mL and 1290 ng/mL and 1860 ng/mL. For the same compound, the “plasma concentration at 48 hours” value ([3]; individual rats 8, 9, 11) was 1640 ng/mL and 1030 ng/mL and 1140 ng/mL, the “plasma concentration at 72 hours” value ([3]; individual rats 8, 9, 11) was 1.25 μg/mL and BQL (BQL = Below Quantifiable Limit < 1.00 μg/mL) (2×) and the “plasma concentration at 96 hours” value ([3]; individual rats 8, 11) was “BQL (BQL = Below Quantifiable Limit < 1.00 μg/mL)”. For the same compound, the “plasma concentration at 120 hours” value ([3]; rat 8) was “BQL (BQL = Below Quantifiable Limit < 1.00 μg/mL)” and the “inhibition of cytochrome P450 2C9, in words” value [2] was “quite potent”.

For `CC(=O)NCCOC(=O)C(Oc1cccc(C(F)(F)F)c1)c1ccc(Cl)cc1` (racemic) [racemic halofenate, 2-acetamidoethyl (4-chlorophenyl) (3-trifluoromethylphenoxy) acetate, reference compound], the “time of peak glucose-lowering activity” value (diabetic ob/ob mice [4]) is given as 9 h, the “time points with significant (p<0.05) decrease in glucose compared to control” value (diabetic ob/ob mice [4]) is given as “most of the timepoints” and the side effects noted (patients with diabetes; previous studies) is given as “gastrointestinal bleeding from stomach and peptic ulcers”. For the same compound, the “effect on glucose in patients with diabetes” value (patients with diabetes; treated with racemic halofenate alone) was “minimal effect on glucose”, the “plasma cholesterol course during treatment, in words” value [5] was “plasma cholesterol declined with treatment” and the “time points with significant plasma glucose reduction vs control” value (diabetic ob/ob mice [6]) was “Significant decreases in glucose levels”. For the same compound, the “time points with reduced plasma insulin vs control” value (diabetic ob/ob mice [6]; listed as racemate, 250 mg/kg/day) was “insulins were lower”, the “plasma glucose after oral glucose challenge, in words” value (Zucker fatty rats; single oral dose 5.5 hours before challenge) was “plasma glucose was reduced” and the “incremental glucose area under the curve (AUC) vs control, in words” value (Zucker fatty rats; single oral dose) was “not statistically significant”.
